Measured values as given in patent publication US10780069B2, “Use of GC-1 in transplant related population” (University of Pittsburgh—Of the Commonwealth System of …, priority 2017, dated 2020).
Entries after “also recorded” stand apart in the source; their conditions may differ.

Columns and labels:
Format in all cases: in vivo
hepatocytes [1] = test: Daily IP injections of GC-1 in wild type C57BL/6 mice: hepatocyte proliferation, β-catenin activation, cyclin-D1; conditions: vs DMSO control
Experimental: All studies on mice were performed in strict accordance with Guidelines. Eight-week old male C57BL/6 male mice (Jackson/Charles River) were maintained on a standard laboratory basal diet (Test Diet) (n=4), or fed a T3-supplemented diet (4 mg/Kg of diet, Sigma Chemicals, St. Louis Mo.) (n=4). GC-1 was administered to the eight week-old male C57BL/6 male mice either via GC-1-supplemented diet (5 mg/Kg of diet, Medchem Express) for 8 days (n=4) or via daily intraperitoneal injections (IP) of GC-1 dissolved in DMSO (0.3 mg/kg/dose) for 8 days (n=7). As a control group for injections, DMSO alone was injected daily intraperitoneal (IP) for 8 days (n=5). Mice were sacrificed 24 hours after the last injection.
To label dividing hepatocytes, BrdU (5-bromodeoxyuridine) dissolved in drinking water (1 mg/ml) was given to all animals throughout the experiment period. The animals were given food and water ad libitum with a 12-hour light/dark daily cycle.
Four micron liver sections were analyzed by immunohistochemistry for β-Catenin (BD Biosciences, San Jose, Calif.), Cyclin-D1 (Thermo-Scientific, Fremont, Calif.) and PCNA (Santa Cruz Biotechnology, Dallas, Tex.). Briefly, formalin-fixed sections were deparaffinized in graded xylene and alcohol. Endogenous peroxidase was inactivated using 3% hydrogen peroxide (Sigma). For β-Catenin, Cyclin-D1 staining, slides were microwaved in Citrate buffer followed by blocking with Superblock for 10 minutes. Sections were then incubated with secondary anti-mouse (for β-catenin) or anti-rabbit (for Cyclin-D1) horseradish peroxidase-conjugated antibody for 30 minutes.
For PCNA, slides were microwaved in zinc sulfate for 12 minutes, followed by blocking with Superblock for 20 minutes. Sections were incubated with PCNA antibody (Santa Cruz) diluted 1:4,000 in phosphate buffered saline (PBS) for 60 minutes. Slides then incubated with horse anti-mouse secondary antibody (1:700 dilution) for 30 minutes. ABC was applied for 30 minutes. DAB kit was then applied. Slides were then dehydrated, coverslips placed, and allowed to dry.
Bromodeoxyuridine (BrdU) was stained with mouse antibody (Becton Dickinson) as previously described (Fanti et al. (2014) Hepatology 59, 2309-2320). Briefly, tissue sections were deparaffinized, exposed to 0.3% hydrogen peroxide in deionized water for 10 minutes to block endogenous peroxidase, treated with 2N HCl, incubated with trypsin 0.1% for 20 minutes and then with normal goat serum for 20 minutes at room temperature. Sections were then incubated overnight in cold room with anti-BrdU monoclonal antibody, followed by biotinylated goat anti-mouse IgG. DAB kit was then applied, and sections were counterstained with hematoxylin. A small segment of intestine was included from each mouse as a positive control for the staining. For quantification of BrdU staining, at least 10 high power fields (400× or 600×) fields each from at least three biological replicates were counted as indicated in the figures. Statistical analysis was performed as described below.
Protein extraction from frozen liver tissue and western blot analysis were performed as previously described (Fanti et al., (2014) Hepatology 59, 2309-2320). For protein extraction, a small amount of frozen liver tissue was obtained (over dry ice) and was homogenized using RIPA buffer with protease and phosphatase inhibitor cocktail (Sigma, St. Louis, Mo.). Samples were transferred to a 1.5 ml tube on ice, and spun in cold room centrifuge at 14,000 RPM for 5 minutes. […]

hepatocytes [2] = test: T3 or GC-1 in LRP5-6 LKO mice and littermate controls
Experimental: Eight to 10 week-old LRP5-6-LKO were obtained from breeding homozygous LRP5-6 double floxed mice with albumin-cre transgenic mice as described previously (Yang et al. (2014) Hepatology 60, 964-976). LRP5-6-LKO or sex matched littermate controls were given either T3-supplemented diet (n=4), basal diet (n=3), IP GC-1 (n=3) or IP DMSO (n=3). Mice were sacrificed at 24 hours after the last IP injection.
To label dividing hepatocytes, BrdU (5-bromodeoxyuridine) dissolved in drinking water (1 mg/ml) was given to all animals throughout the experiment period. The animals were given food and water ad libitum with a 12-hour light/dark daily cycle. […]
Protein extraction from frozen liver tissue and western blot analysis were performed as previously described (Fanti et al., (2014) Hepatology 59, 2309-2320). For protein extraction, a small amount of frozen liver tissue was obtained (over dry ice) and was homogenized using RIPA buffer with protease and phosphatase inhibitor cocktail (Sigma, St. Louis, Mo.). Samples were transferred to a 1.5 ml tube on ice, and spun in cold room centrifuge at 14,000 RPM for 5 minutes. Pellet was then discarded and sample was aliquoted and stored at −80 C for use. Fifty micrograms of the proteins were resolved by sodium dodecyl sulfate-polyacrylamide gel electrophoresis analysis, and transferred to immobilon-polyvinylidene difluoride membranes.
The primary antibodies used were against β-catenin (BD Biosciences); pSer675-β-catenin, pSer552-β-catenin, Active-β-catenin (Cell-Signaling), Cyclin-D1 (Thermo-Scientific), and β-Actin (Sigma). Dilutions of primary antibody were done according to manufacturer recommendations (1:1000 for all except Cyclin-D1 which was 1:200). Horseradish peroxidase-conjugated secondary antibodies used were goat anti-mouse (1:20,000) and goat anti-rabbit (1:10,000) (Millipore). The proteins were detected by Super-Signal West Pico Chemiluminescense Substrate (Thermo Scientific, Rockford Ill.) and visualized by autoradiography. […]

hepatocytes [3] = test: GC-1 or T3 in hepatocyte specific β-catenin knockout mice (β-Cat LKO) and littermate controls; conditions: control mice, GC-1 treated vs basal diet

Cc1cc(OCC(=O)O)cc(C)c1Cc1ccc(O)c(C(C)C)c1 [GC-1, Sobetirome]
PCNA-positive hepatocytes and BrdU incorporation (hepatocyte proliferation) (hepatocytes [1]; GC-1 0.3 mg/Kg/dose daily IP in DMSO, 8 days, 0.3 mg/kg): increased number of PCNA-positive hepatocytes as well as BrdU incorporation; also recorded: increased proliferation
P-Ser675-β-catenin level, Western blot of whole liver lysates (hepatocytes [1]; GC-1 0.3 mg/Kg/dose daily IP): increased
cyclin-D1 immunohistochemistry (hepatocytes [1]; GC-1 0.3 mg/Kg/dose daily IP): many positive hepatocytes
cyclin-D1 level, Western blot of whole liver lysates (hepatocytes [1]; GC-1 0.3 mg/Kg/dose daily IP): increased
total β-catenin level, Western blot (hepatocytes [1]; GC-1 0.3 mg/Kg/dose daily IP): did not show much difference
pSer675-β-catenin levels, Western blot (hepatocytes [2]; LRP5-6-LKO and littermate controls): comparable or even greater levels
pSer552-β-catenin levels, Western blot (hepatocytes [2]; LRP5-6 LKO): modest increase
active β-catenin levels (hepatocytes [2]; LRP5-6 LKO after T3 or GC-1 feeding vs basal diet): no notable differences
cyclin-D1 protein and mRNA expression (hepatocytes [2]; LRP5-6 LKO vs controls): decreased
numbers of cyclin-D1-positive hepatocytes (immunohistochemistry) (hepatocytes [2]; LRP5-6 LKO vs controls): notably decreased
total β-catenin levels (hepatocytes [2]; LRP5-6 LKO vs controls): comparable levels
number of BrdU-labeled hepatocyte nuclei (hepatocytes [2]; LRP5-6 LKO vs controls, T3 diet 4 mg/Kg of diet or GC-1 0.3 mg/Kg/dose IP 8 days): notable decrease
active β-catenin levels in liver lysates (hepatocytes [2]; control mice fed T3 or GC-1 diet for 8 days vs basal diet): dramatic increase
active-β-catenin, Western blot (hepatocytes [3]): notable increase
